Reference: patent publication US20130261077A1 (priority 2012, published 2013)

Target: T1, FimH-CRD (Escherichia coli, UniProt P08191)
T1 construct: The first 177 amino acids of the FimH protein; thrombin tag (printed as 'fusion protein with thrombin') (cleaved yes); made in house; host or cells: bacteria (pET21b plasmid)
Test: Competitive binding assay by fluorescence polarization, assay 1 (compounds prepared by manual serial dilution)
Protocol: The first 177 amino acids of the FimH protein were expressed as a fusion protein with thrombin in a pET21b plasmid in bacteria. This FimH protein sequence contains the carbohydrate recognition domain (CRD) and shall be termed FimH-CRD. Following bacterial expression of the protein, the FimH-CRD protein was purified to homogeneity and the thrombin tag removed by protease cleavage. A competitive binding assay by fluorescence polarization was performed using 5 nM of the Alexa 647 mannoside probe and 60 nM of the FimH-CRD. The samples are assayed in a low volume 384 well microtiter plate in a final volume of 20 μl. The final assay buffer conditions are the following, 50 mM Tris-Cl, ph 7.0, 100 mM NaCl, 1 mM EDTA, 5 mM β-mercaptoethanol, 0.05% BSA and 2.5% DMSO. Two assays are performed for FimH, termed assay 1 or assay 2. The assay conditions are the same for both assays except the following: assay 1 has compounds prepared by manual dilution in a serial dilution factor with 12-point dose response while assay 2 has compounds prepared by a robotics system also through a serial dilution factor (12 point dose response) and initially prepared in duplicate in 384 well-Corning polypropylene round bottom plates. The assay 2 plates have compound which is then frozen and must be thawed prior to use. Initially the Alexa 647 probe and the FimH-CRD are added to the assay buffer and then 0.5 μl of test compound (assay 1 or 2) between 0.4 nM to 75 μM final concentration are added (12 point titration with 3-fold serial dilution). Control wells for the Alexa 647 probe are prepared with the same conditions except for the addition of the FimH-CRD protein. Plates are then incubated for 5 hrs at room temperature in the dark and under humid conditions to prevent drying. Plates are read using the SpectraMax Paradigm multi-mode plate reader and the appropriate fluorescent polarization detection cartridge (Alexa-647).
Alexa 647 mannoside probe is prepared using the similar procedure reported for FAM mannoside (Han, Z. et. al., 2010, J. Med. Chem., 53, 4779) and is described in the scheme below.
To a blue colored stirred solution of (2S,3S,4S,5S,6R)-2-(4-aminobutoxy)-6-(hydroxymethyl)tetrahydropyran-3,4,5-triol (2.21 mg, 0.009 mmol) and the (2E)-2-[(2E,4E)-5-[3,3-dimethyl-5-sulfonato-1-(3-sulfonatopropyl)indol-1-ium-2-yl]penta-2,4-dienylidene]-3-[6-(2,5-dioxopyrrolidin-1-yl)oxy-6-oxo-hexyl]-3-methyl-1-(3-sulfonatopropyl)indoline-5-sulfonate (Potassium Ion (3)) (4.9 mg, 0.0044 mmol) in DMF (44 μL) is added Et3N (5.4 mg, 7.0 μL, 0.053 mmol) at RT. The solution is stirred at room temperature over night, concentrated, dissolved in water and purified on 12 g C-18 silica gel cartridge on Isolera system using acetonitrile in water (0 to 40%, 10 CV) and followed by lyophilization to afford Alexa 647 mannoside probe (3.3 mg, 34%) as deep blue solid.
The Kd values of the compounds are determined from dose response curves using twelve concentrations per compound in duplicate. Curves are fitted to data points using Fluorescence Polarization competitive displacement analysis, and Kds are interpolated from the resulting curves using GraphPad Prism software, version […] (GraphPad software Inc., San Diego, Calif., USA).

T1 sequence (P08191 22-177): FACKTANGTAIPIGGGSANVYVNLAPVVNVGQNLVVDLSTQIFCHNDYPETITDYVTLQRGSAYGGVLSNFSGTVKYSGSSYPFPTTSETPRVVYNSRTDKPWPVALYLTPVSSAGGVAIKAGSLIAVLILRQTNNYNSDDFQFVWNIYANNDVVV

Compound	IC50	Kd
OC[C@H]1O[C@H](c2cccc(O)c2)[C@@H](O)[C@@H](O)[C@@H]1O [Compound 1, (2R,3S,4R,5S,6R)-2-(hydroxymethyl)-6-(3-hydroxyphenyl)tetrahydropyran-3,4,5-triol]	53 nM	12.3 ± 5.1 nM
CNC(=O)c1ccc(-c2cccc([C@H]3O[C@H](CO)[C@@H](O)[C@H](O)[C@@H]3O)c2)cc1 [Compound 2, N-methyl-4-[3-[(2R,3S,4R,5S,6R)-3,4,5-trihydroxy-6-(hydroxymethyl)tetrahydropyran-2-yl]phenyl]benzamide]	29 nM	< 5 nM
CNC(=O)c1ccc(Oc2cccc([C@H]3O[C@H](CO)[C@@H](O)[C@H](O)[C@@H]3O)c2)cc1 [Compound 3, N-methyl-4-[3-[(2R,3S,4R,5S,6R)-3,4,5-trihydroxy-6-(hydroxymethyl)tetrahydropyran-2-yl]phenoxy]benzamide]	39 nM	7.2 ± 1.1 nM
CNC(=O)c1cccc(Oc2cccc([C@H]3O[C@H](CO)[C@@H](O)[C@H](O)[C@@H]3O)c2)c1 [Compound 5, N-methyl-3-[3-[(2R,3S,4R,5S,6R)-3,4,5-trihydroxy-6-(hydroxymethyl)tetrahydropyran-2-yl]phenoxy]benzamide]	18 nM	< 5 nM
Cc1ccc(-c2cccc([C@H]3O[C@H](CO)[C@@H](O)[C@H](O)[C@@H]3O)c2)cc1 [Compound 6, (2R,3S,4R,5S,6R)-2-(hydroxymethyl)-6-(4′-methyl-[1,1′-biphenyl]-3-yl)tetrahydro-2H-pyran-3,4,5-triol]	87 nM	13.7 ± 7.7 nM
CC(=O)Nc1cccc(-c2cccc([C@H]3O[C@H](CO)[C@@H](O)[C@H](O)[C@@H]3O)c2)c1 [Compound 7, N-[3-[3-[(2R,3S,4R,5S,6R)-3,4,5-trihydroxy-6-(hydroxymethyl)tetrahydropyran-2-yl]phenyl]phenyl]acetamide]	70 nM	14.3 ± 9.1 nM
OC[C@H]1O[C@H](c2cccc(-c3ccsc3)c2)[C@@H](O)[C@@H](O)[C@@H]1O [Compound 8, (2R,3S,4R,5S,6R)-2-(hydroxymethyl)-6-[3-(3-thienyl)phenyl]tetrahydropyran-3,4,5-triol]	155 nM	40.1 ± 17.1 nM
OC[C@H]1O[C@H](c2cccc(-c3cccnc3)c2)[C@@H](O)[C@@H](O)[C@@H]1O [Compound 9, (2R,3S,4R,5S,6R)-2-(hydroxymethyl)-6-[3-(3-pyridyl)phenyl]tetrahydropyran-3,4,5-triol]	163 nM	28.5 ± 23.7 nM
OC[C@H]1O[C@H](c2cccc(-c3ccc4c(c3)OCO4)c2)[C@@H](O)[C@@H](O)[C@@H]1O [Compound 11, (2R,3S,4R,5S,6R)-2-[3-(1,3-benzodioxol-5-yl)phenyl]-6-(hydroxymethyl)tetrahydropyran-3,4,5-triol]	88 nM	11.9 ± 7.3 nM
OCc1ccccc1-c1cccc([C@H]2O[C@H](CO)[C@@H](O)[C@H](O)[C@@H]2O)c1 [Compound 13, (2R,3S,4R,5S,6R)-2-(hydroxymethyl)-6-(2′-(hydroxymethyl)-[1,1′-biphenyl]-3-yl)tetrahydro-2H-pyran-3,4,5-triol]	195 nM	39.9 ± 23.6 nM
CN(C)Cc1ccccc1-c1cccc([C@H]2O[C@H](CO)[C@@H](O)[C@H](O)[C@@H]2O)c1 [Compound 14, (2R,3S,4R,5S,6R)-2-(2′-((dimethylamino)methyl)-[1,1′-biphenyl]-3-yl)-6-(hydroxymethyl)tetrahydro-2H-pyran-3,4,5-triol]	551 nM	77.8 ± 70.4 nM
OC[C@H]1O[C@H](c2cccc(-c3ccc4[nH]ccc4c3)c2)[C@@H](O)[C@@H](O)[C@@H]1O [Compound 15]	306 nM	48.2 ± 47.7 nM
Nc1cccc(-c2cccc([C@H]3O[C@H](CO)[C@@H](O)[C@H](O)[C@@H]3O)c2)c1 [Compound 16, (2R,3S,4R,5S,6R)-2-[3-(3-aminophenyl)phenyl]-6-(hydroxymethyl)tetrahydropyran-3,4,5-triol]	247 nM	37 ± 33.7 nM
